Source: patent US9296758B2, “2-quinolinyl-acetic acid derivatives as HIV antiviral compounds” (GILEAD SCIENCES, INC., priority 2010, dated 2016)

Tested on: HIV-IIIb
Assay: Test A: Antiviral Assays in MT4 Cells
Assay type: cell-based
Conditions: MT-4 cells infected with HIV-IIIb (0.004 m.o.i.), 5 days of incubation, CellTiter-Glo chemiluminescence readout
Summary of the method: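 MT-4 cells pre-infected with HIV-IIIb (0.004 m.o.i.) or mock-infected, 2000 cells per well, were exposed to 10 three-fold serial compound dilutions in quadruplicate in RPMI 1640 with 10% FBS. After 5 days at 37° C, cell viability read by CellTiter-Glo chemiluminescence.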

[1] = Human immunodeficiency virus 1, IIIB, MT4, 120 h

| Structure (SMILES) | EC50 [1] [nM] | EC50 [nM] |
| --- | --- | --- |
| Cc1cc2nc(C(C)(C)C)ccc2c(-c2ccc3c4c(ccnc24)CCO3)c1[C@H](OC(C)(C)C)C(=O)O [Compound 36, (S)-2-tert-butoxy-2-((R)-2-tert-butyl-5-(2,3-dihydropyrano[4,3,2-de]quinolin-7-yl)-7-methylquinolin-6-yl)acetic acid] | 20 |  |
| Cc1cc2c(ccc(=O)n2-c2ccc(Cl)cc2)c(-c2ccc(Cl)cc2)c1[C@H](OC(C)(C)C)C(=O)O [Compound 59, (S)-2-(1,5-Bis(4-chlorophenyl)-7-methyl-2-oxo-1,2-dihydroquinolin-6-yl)-2-tert-butoxyacetic acid] | 321 |  |
| Cc1cc2nc(NCCN3CCOCC3)ccc2c(-c2ccc(Cl)cc2)c1[C@H](OC(C)(C)C)C(=O)O [Compound 34, (S)-2-tert-Butoxy-2-(5-(4-chlorophenyl)-7-methyl-2-(2-morpholinoethylamino)quinolin-6-yl)acetic acid] | 266 |  |
| Cc1cc2nc(C(F)F)ccc2c(-c2ccc3c4c(ccnc24)CCO3)c1[C@H](OC(C)(C)C)C(=O)O [Compound 99, (S)-2-tert-butoxy-2-((R)-2-(difluoromethyl)-5-(2,3-dihydropyrano[4,3,2-de]quinolin-7-yl)-7-methylquinolin-6-yl)acetic acid] |  | 12 |
| Cc1cc2nc(CN3CCCCC3)ccc2c(-c2ccc(Cl)cc2)c1[C@H](OC(C)(C)C)C(=O)O [Compound 11, (S)-2-tert-Butoxy-2-(5-(4-chlorophenyl)-7-methyl-2-(piperidin-1-ylmethyl)quinolin-6-yl)acetic acid] | 479 |  |
| Cc1ccc2c(-c3ccc4c5c3CCCN5CCO4)c([C@H](OC(C)(C)C)C(=O)O)c(C)cc2n1 [Compound 103, (2S)-2-tert-butoxy-2-(2,7-dimethyl-5-(3,5,6,7-tetrahydro-2H-[1,4]oxazino[2,3,4-ij]quinolin-8-yl)quinolin-6-yl)acetic acid] | 25 |  |
| Cc1cc2nc(C#CC3CC3)ccc2c(-c2ccc3c4c(ccnc24)CCO3)c1[C@H](OC(C)(C)C)C(=O)O (atropisomer, axis not shown) [Compound 42, (S)-2-tert-butoxy-2-((R)-2-(cyclopropylethynyl)-5-(2,3-dihydropyrano[4,3,2-de]quinolin-7-yl)-7-methylquinolin-6-yl)acetic acid] | 46 |  |
| Cc1cc2nc(C(F)F)ccc2c(-c2ccc(Cl)cc2)c1[C@H](OC(C)(C)C)C(=O)O [Compound 100, (S)-2-tert-butoxy-2-(5-(4-chlorophenyl)-2-(difluoromethyl)-7-methylquinolin-6-yl)acetic acid] | 75 |  |
| Cc1ccc2c(-c3ccc4c(c3Cl)NCCO4)c([C@H](OC(C)(C)C)C(=O)O)c(C)cc2n1 (atropisomer, axis not shown) [Compound 105] |  | 105 |
| Cc1cc2nc(CCc3ccccc3)ccc2c(-c2ccc3c4c(ccnc24)CCO3)c1[C@H](OC(C)(C)C)C(=O)O (atropisomer, axis not shown) [Compound 41, (S)-2-tert-butoxy-2-((R)-5-(2,3-dihydropyrano[4,3,2-de]quinolin-7-yl)-7-methyl-2-phenethylquinolin-6-yl)acetic acid] | 26 |  |
| COCCOCCCNc1ccc2c(-c3ccc(Cl)cc3)c([C@H](OC(C)(C)C)C(=O)O)c(C)cc2n1 [Compound 35, (S)-2-tert-butoxy-2-(5-(4-chlorophenyl)-2-(3-(2-methoxyethoxy)propylamino)-7-methylquinolin-6-yl)acetic acid] | 157 |  |
| Cc1cc2c(ccc(=O)n2CCNC(=O)OCC2c3ccccc3-c3ccccc32)c(-c2ccc(Cl)cc2)c1[C@H](OC(C)(C)C)C(=O)O [Compound 101, (S)-2-(1-(2-(((9H-Fluoren-9-yl)methoxy)carbonylamino)ethyl)-5-(4-chlorophenyl)-7-methyl-2-oxo-1,2-dihydroquinolin-6-yl)-2-tert-butoxyacetic acid] | 367 |  |
| Cc1cc2nc(-c3cncnc3)ccc2c(-c2ccc3c4c(ccnc24)CCO3)c1[C@H](OC(C)(C)C)C(=O)O (atropisomer, axis not shown) [Compound 72, (S)-2-tert-Butoxy-2-((R)-5-(2,3-dihydropyrano[4,3,2-de]quinolin-7-yl)-7-methyl-2-(pyrimidin-5-yl)quinolin-6-yl)acetic acid] | 194 |  |
| Cc1cc2nc(N3CCC3)ccc2c(-c2ccc3c4c(ccnc24)CCO3)c1[C@H](OC(C)(C)C)C(=O)O (atropisomer, axis not shown) [Compound 95, (S)-2-((R)-2-(azetidin-1-yl)-5-(2,3-dihydropyrano[4,3,2-de]quinolin-7-yl)-7-methylquinolin-6-yl)-2-tert-butoxyacetic acid] | 54 |  |
| Cc1cc2nc(C3CC3)ccc2c(-c2ccc(Cl)cc2)c1[C@H](OC(C)(C)C)C(=O)O [Compound 28, (S)-2-tert-butoxy-2-(5-(4-chlorophenyl)-2-cyclopropyl-7-methylquinolin-6-yl)acetic acid] | 43 |  |
| CCOCc1ccc2c(-c3ccc(Cl)cc3)c([C@H](OC(C)(C)C)C(=O)O)c(C)cc2n1 [Compound 15, (S)-2-tert-butoxy-2-(5-(4-chlorophenyl)-2-(ethoxymethyl)-7-methylquinolin-6-yl)acetic acid] | 334 |  |
| Cc1cc2[nH]c(=O)ccc2c(-c2ccc3c4c(ccnc24)CCO3)c1[C@H](OC(C)(C)C)C(=O)O [Compound 97, (S)-2-tert-Butoxy-2-((R)-5-(2,3-dihydropyrano[4,3,2-de]quinolin-7-yl)-7-methyl-2-oxo-1,2-dihydroquinolin-6-yl)acetic acid] | 898 |  |
| Cc1cc2nc(C(=O)O)ccc2c(-c2ccc(Cl)cc2)c1[C@H](OC(C)(C)C)C(=O)O [Compound 24, (S)-6-(tert-Butoxy(carboxy)methyl)-5-(4-chlorophenyl)-7-methylquinoline-2-carboxylic acid] | 29800 |  |
| Cc1cc2nc(CN(C)C)ccc2c(-c2ccc3c4c(ccnc24)CCO3)c1[C@H](OC(C)(C)C)C(=O)O [Compound 20, (S)-2-tert-butoxy-2-((R)-5-(2,3-dihydropyrano[4,3,2-de]quinolin-7-yl)-2-((dimethylamino)methyl)-7-methylquinolin-6-yl)acetic acid] |  | 1740 |
| CCOC(=O)c1ccc2c(-c3ccc(Cl)cc3)c([C@H](OC(C)(C)C)C(=O)O)c(C)cc2n1 [Compound 13, (S)-2-tert-Butoxy-2-(5-(4-chlorophenyl)-2-(ethoxycarbonyl)-7-methylquinolin-6-yl)acetic acid] | 150 |  |
| Cc1cc2nc(CC(C)C)ccc2c(-c2ccc3c4c(ccnc24)CCO3)c1[C@H](OC(C)(C)C)C(=O)O (atropisomer, axis not shown) [Compound 50, (S)-2-tert-butoxy-2-((R)-5-(2,3-dihydropyrano[4,3,2-de]quinolin-7-yl)-2-isobutyl-7-methylquinolin-6-yl)acetic acid] | 24 |  |
| Cc1cc2c(ccc(=O)n2Cc2ccccc2)c(-c2ccc(Cl)cc2)c1[C@H](OC(C)(C)C)C(=O)O [Compound 65B, (S)-2-(1-benzyl-5-(4-chlorophenyl)-7-methyl-2-oxo-1,2-dihydroquinolin-6-yl)-2-tert-butoxyacetic acid] | 55 |  |
| Cc1cc2nc(-c3ccn[nH]3)ccc2c(-c2ccc(Cl)cc2)c1[C@H](OC(C)(C)C)C(=O)O [Compound 70, (S)-2-tert-Butoxy-2-(5-(4-chlorophenyl)-7-methyl-2-(1H-pyrazol-5-yl)quinolin-6-yl)acetic acid] | 206 |  |
